US20050112573A1, “Method of detecting toxic substance” (priority 2001, published 2005)

Test system: yeast genes (level of expressed mRNA)
Assay: DNA chip analysis of expressed mRNA of yeast genes after 2 h culture with a toxic chemical substance
Assay type: cell-based, Saccharomyces cerevisiae S288C
Method in brief: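 S. cerevisiae S288C in YPD at 25 °C was exposed at log phase for 2 h to a growth-inhibiting, non-lethal concentration of the chemical. Poly(A) mRNA was reverse-transcribed with Cy3- or Cy5-dUTP and hybridized to a whole-genome yeast DNA chip (65 °C, >12 h). Values are fluorescence ratios versus untreated cells.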

C[S+](C)[O-] [(15), dimethylsulfoxide]
The level of expressed mRNA in the presence of chemical substance/absence: YGR293C (gene YGR293C): 0.7
The level of expressed mRNA in the presence of chemical substance/absence: YHL006C (gene YHL006C): 0.6
The level of expressed mRNA in the presence of chemical substance/absence: YHL021C (gene YHL021C): 1.2
The level of expressed mRNA in the presence of chemical substance/absence: YHL037C (gene YHL037C): 0.8
level of expressed mRNA in the presence of chemical substance/in its absence (gene YHR037W): 1.1
The level of expressed mRNA in the presence of chemical substance/absence: YHR083W (gene YHR083W): 1.3
level of expressed mRNA in the presence of chemical substance/in its absence (gene YHR092C): 0.2
The level of expressed mRNA in the presence of chemical substance/absence: YHR095W (gene YHR095W): 0.8
The level of expressed mRNA in the presence of chemical substance/absence: YHR105W (gene YHR105W): 0.9
The level of expressed mRNA in the presence of chemical substance/absence: YHR134W (gene YHR134W): 1.0
level of expressed mRNA in the presence of chemical substance/in its absence (gene YHR137W): 2.8
The level of expressed mRNA in the presence of chemical substance/absence: YHR180W (gene YHR180W): 0.8
The level of expressed mRNA in the presence of chemical substance/absence: YHR181W (gene YHR181W): 1.4
level of expressed mRNA in the presence of chemical substance/in its absence (gene YHR190W): 1.3
level of expressed mRNA in the presence of chemical substance/in its absence (gene YIL033C): 1.0
The level of expressed mRNA in the presence of chemical substance/absence: YIL108W (gene YIL108W): 1.8
The level of expressed mRNA in the presence of chemical substance/absence: YIL127C (gene YIL127C): 0.7
level of expressed mRNA in the presence of chemical substance/in its absence (gene YIL154C): 4.3
The level of expressed mRNA in the presence of chemical substance/absence: YIL165C (gene YIL165C): 0.8
level of expressed mRNA in the presence of chemical substance/in its absence (gene YIL167W): 0.6
level of expressed mRNA in the presence of chemical substance/in its absence (gene YIR035C): 1.4
The level of expressed mRNA in the presence of chemical substance/absence: YJL017W (gene YJL017W): 1.1
The level of expressed mRNA in the presence of chemical substance/absence: YJL032W (gene YJL032W): 1.0
The level of expressed mRNA in the presence of chemical substance/absence: YJL037W (gene YJL037W): 1.6
The level of expressed mRNA in the presence of chemical substance/absence: YJL049W (gene YJL049W): 0.8
level of expressed mRNA in the presence of chemical substance/in its absence (gene YJL088W): 5.7
The level of expressed mRNA in the presence of chemical substance/absence: YJL097W (gene YJL097W): 1.1
level of expressed mRNA in the presence of chemical substance/in its absence (gene YJL132W): 1.1
level of expressed mRNA in the presence of chemical substance/in its absence (gene YJL196C): 0.6
The level of expressed mRNA in the presence of chemical substance/absence: YJR030C (gene YJR030C): 0.8
The level of expressed mRNA in the presence of chemical substance/absence: YJR044C (gene YJR044C): 1.6
level of expressed mRNA in the presence of chemical substance/in its absence (gene YJR142W): 0.6
level of expressed mRNA in the presence of chemical substance/in its absence (gene YJR148W): 3.2
level of expressed mRNA in the presence of chemical substance/in its absence (gene YJR159W): 2.3
The level of expressed mRNA in the presence of chemical substance/absence: YKL051W (gene YKL051W): 1.5
The level of expressed mRNA in the presence of chemical substance/absence: YKL059C (gene YKL059C): 1.1
level of expressed mRNA in the presence of chemical substance/in its absence (gene YKL067W): 1.1
The level of expressed mRNA in the presence of chemical substance/absence: YKL090W (gene YKL090W): 0.8
The level of expressed mRNA in the presence of chemical substance/absence: YKL094W (gene YKL094W): 1.0
The level of expressed mRNA in the presence of chemical substance/absence: YKL097C (gene YKL097C): 0.8
The level of expressed mRNA in the presence of chemical substance/absence: YKL100C (gene YKL100C): 1.7
level of expressed mRNA in the presence of chemical substance/in its absence (gene YKR039W): 1.7
The level of expressed mRNA in the presence of chemical substance/absence: YKR040C (gene YKR040C): 1.1
The level of expressed mRNA in the presence of chemical substance/absence: YLR097C (gene YLR097C): 0.9
level of expressed mRNA in the presence of chemical substance/in its absence (gene YLR142W): 1.6
level of expressed mRNA in the presence of chemical substance/in its absence (gene YLR180W): 2.5
The level of expressed mRNA in the presence of chemical substance/absence: YLR226W (gene YLR226W): 1.3
level of expressed mRNA in the presence of chemical substance/in its absence (gene YLR273C): 2.6
level of expressed mRNA in the presence of chemical substance/in its absence (gene YLR300W): 2.7
level of expressed mRNA in the presence of chemical substance/in its absence (gene YLR307W): 3.9
The level of expressed mRNA in the presence of chemical substance/absence: YLR338W (gene YLR338W): 1.5
The level of expressed mRNA in the presence of chemical substance/absence: YLR339C (gene YLR339C): 1.0
The level of expressed mRNA in the presence of chemical substance/absence: YLR392C (gene YLR392C): 0.5
The level of expressed mRNA in the presence of chemical substance/absence: YLR415C (gene YLR415C): 1.0
The level of expressed mRNA in the presence of chemical substance/absence: YLR427W (gene YLR427W): 0.8
The level of expressed mRNA in the presence of chemical substance/absence: YML013W (gene YML013W): 2.2
The level of expressed mRNA in the presence of chemical substance/absence: YML029W (gene YML029W): 0.8
The level of expressed mRNA in the presence of chemical substance/absence: YML041C (gene YML041C): 1.0
The level of expressed mRNA in the presence of chemical substance/absence: YML079W (gene YML079W): 0.3
level of expressed mRNA in the presence of chemical substance/in its absence (gene YML110C): 1.3
The level of expressed mRNA in the presence of chemical substance/absence: YML118W (gene YML118W): 2.2
The level of expressed mRNA in the presence of chemical substance/absence: YMR068W (gene YMR068W): 2.2
The level of expressed mRNA in the presence of chemical substance/absence: YMR071C (gene YMR071C): 0.8
level of expressed mRNA in the presence of chemical substance/in its absence (gene YMR105C): 0.9
The level of expressed mRNA in the presence of chemical substance/absence: YMR114C (gene YMR114C): 1.2
The level of expressed mRNA in the presence of chemical substance/absence: YMR115W (gene YMR115W): 1.2
The level of expressed mRNA in the presence of chemical substance/absence: YMR160W (gene YMR160W): 1.5
level of expressed mRNA in the presence of chemical substance/in its absence (gene YMR189W): 5.6
The level of expressed mRNA in the presence of chemical substance/absence: YMR258C (gene YMR258C): 0.6
level of expressed mRNA in the presence of chemical substance/in its absence (gene YMR271C): 0.6
level of expressed mRNA in the presence of chemical substance/in its absence (gene YMR272C): 1.1
level of expressed mRNA in the presence of chemical substance/in its absence (gene YMR296C): 6.7
level of expressed mRNA in the presence of chemical substance/in its absence (gene YNL012W): 1.6
The level of expressed mRNA in the presence of chemical substance/absence: YNL026W (gene YNL026W): 0.8
level of expressed mRNA in the presence of chemical substance/in its absence (gene YNL037C): 0.9
level of expressed mRNA in the presence of chemical substance/in its absence (gene YNL045W): 0.8
The level of expressed mRNA in the presence of chemical substance/absence: YNL058C (gene YNL058C): 2.2
The level of expressed mRNA in the presence of chemical substance/absence: YNL063W (gene YNL063W): 0.7
level of expressed mRNA in the presence of chemical substance/in its absence (gene YNL104C): 2.5
level of expressed mRNA in the presence of chemical substance/in its absence (gene YNL106C): 3.3
level of expressed mRNA in the presence of chemical substance/in its absence (gene YNL130C): 2.5
level of expressed mRNA in the presence of chemical substance/in its absence (gene YNL169C): 3.4
The level of expressed mRNA in the presence of chemical substance/absence: YNL176C (gene YNL176C): 0.8
The level of expressed mRNA in the presence of chemical substance/absence: YNL181W (gene YNL181W): 1.0
The level of expressed mRNA in the presence of chemical substance/absence: YNL191W (gene YNL191W): 1.0
The level of expressed mRNA in the presence of chemical substance/absence: YNL194C (gene YNL194C): 0.5
The level of expressed mRNA in the presence of chemical substance/absence: YNL200C (gene YNL200C): 0.8
The level of expressed mRNA in the presence of chemical substance/absence: YNL212W (gene YNL212W): 0.9
level of expressed mRNA in the presence of chemical substance/in its absence (gene YNL231C): 0.9
The level of expressed mRNA in the presence of chemical substance/absence: YNL253W (gene YNL253W): 0.5
The level of expressed mRNA in the presence of chemical substance/absence: YNL265C (gene YNL265C): 0.6
The level of expressed mRNA in the presence of chemical substance/absence: YNL276C (gene YNL276C): 0.5
level of expressed mRNA in the presence of chemical substance/in its absence (gene YNL322C): 3.7
level of expressed mRNA in the presence of chemical substance/in its absence (gene YNR002C): 1.0
level of expressed mRNA in the presence of chemical substance/in its absence (gene YNR019W): 1.6
level of expressed mRNA in the presence of chemical substance/in its absence (gene YNR033W): 1.3
The level of expressed mRNA in the presence of chemical substance/absence: YNR051C (gene YNR051C): 1.2
level of expressed mRNA in the presence of chemical substance/in its absence (gene YNR059W): 1.0
The level of expressed mRNA in the presence of chemical substance/absence: YOL026C (gene YOL026C): 0.9
The level of expressed mRNA in the presence of chemical substance/absence: YOL030W (gene YOL030W): 0.9
level of expressed mRNA in the presence of chemical substance/in its absence (gene YOL058W): 2.7
level of expressed mRNA in the presence of chemical substance/in its absence (gene YOL126C): 1.4
level of expressed mRNA in the presence of chemical substance/in its absence (gene YOL143C): 1.0
level of expressed mRNA in the presence of chemical substance/in its absence (gene YOL153C): 1.2
level of expressed mRNA in the presence of chemical substance/in its absence (gene YOL157C): 1.1
The level of expressed mRNA in the presence of chemical substance/absence: YOR022C (gene YOR022C): 0.8
The level of expressed mRNA in the presence of chemical substance/absence: YOR087W (gene YOR087W): 0.8
The level of expressed mRNA in the presence of chemical substance/absence: YOR088W (gene YOR088W): 0.8
level of expressed mRNA in the presence of chemical substance/in its absence (gene YOR099W): 1.5
level of expressed mRNA in the presence of chemical substance/in its absence (gene YOR130C): 1.0
level of expressed mRNA in the presence of chemical substance/in its absence (gene YOR136W): 1.2
The level of expressed mRNA in the presence of chemical substance/absence: YOR138C (gene YOR138C): 1.0
The level of expressed mRNA in the presence of chemical substance/absence: YOR155C (gene YOR155C): 0.9
The level of expressed mRNA in the presence of chemical substance/absence: YOR253W (gene YOR253W): 1.1
